Test results: patent publication US20240199561A1, “INHIBITORS OF DYRK AND PIM” (COLD SPRING HARBOR LABORATORY, priority 2021, published 2024)
“Also recorded” adds a separate entry of the source.

Assays:
DYRK1A = DYRK1A (Homo sapiens (Human), UniProt Q13627); test: Radiolabelled kinase assay (IC50 determination), DYRK1A; settings: read-out: DYRK1A IC50 (nm)
Method: Protein kinase assays using radiolabeled [γ-^32P] […] In this assay, the activity of a protein kinase is measured using an appropriate acceptor peptide or protein substrate. The assay method involves the use of P81 phosphocellulose paper squares to capture the phosphorylated peptides or proteins resulting from the protein kinase reaction. The activity of DYRK1A was measured by its ability to phosphorylate the peptide termed Woodtide that is derived from the substrate FKHR (Forkhead in rhabdomyosarcoma) at Ser329. Two lysine residues are added at the N-terminus of the peptide to facilitate its binding to the phosphocellulose paper ([sequence]). Assays were carried out at 30° C. for 10 mins using 25 μM Woodtide in 50 mM HEPES pH 7.5, 50 mM MgCl2, 50 mM DTT and 0.1 mM [γ-^32P] ATP (106 c.p.m./nmol). […] The readings were taken using a scintillation counter and data was analyzed using GraphPad Prism 8. One unit of enzyme activity was the amount that catalyzed the phosphorylation of 1 nmol of Woodtide in 1 min.

PIM1 = PIM1 (Homo sapiens (Human), UniProt P11309); test: Kinase assay, PIM1 IC50; assay type: biochemical
U87MG cells [1] = test: Neurosphere proliferation assay, U87MG; assay type: cell-based; settings: for proliferation of U87MG cells, assessed by neurosphere diameter: 5 μM, 10 μM, and 20 μM, compared to DMSO vehicle control; for neurosphere proliferation: U87MG DYRK1A knockouts rescued with point mutant F238LM240R, compared to DYRK1A wild-type treated cells; for neurosphere proliferation (neurosphere numbers and size): U87MG, serum free conditions with growth factors
Method: (§1) Neurospheres are free-floating 3-D clusters of neural stem cells that are grown in serum-free media supplemented with growth factors. These cells have the capacity to self-renew and differentiate into cell types present within the tumor of origin. They are also responsible for tumor propagation, recurrence and resistance to traditional treatments. Neurosphere assays are commonly used to uncover more relevant brain tumor biology than traditional culture conditions. Several parameters can be assayed including neurosphere number and size. Neurosphere formation remained a significant predictor of clinical outcome in GBM, independent of the Ki67 labeling index. […] Self-renewal is the ability of a single cell to form a neurosphere.
(§2) Two EGFR-dependent GBM cell-lines, U87MG and LN229 were grown under serum free conditions with growth factors to induce the formation of neurospheres. Their stemness was confirmed using a western blot to detect stem cell markers. […] This reaffirmed the fact that DYRK1A plays a crucial role in regulating neurosphere self-renewal in GBM.
Compounds of Formula I therefore have an anticancer potential and inhibit proliferation of cells with a cancer phenotype.

LN229 [2] = test: Neurosphere proliferation assay, LN229; assay type: cell-based; settings: LN229, serum free conditions with growth factors
Method: as §1, §2

U87MG cells [3] = test: Invasion assay (Matrigel), U87MG; assay type: cell-based; settings: for ability of the cells to invade the Matrigel chamber / cell invasion (cells crossing matrigel membrane): U87MG; for invasion: U87MG DYRK1A knockouts rescued with point mutant F238LM240R, compared to DYRK1A wild-type treated cells; for cell invasion (cells crossing matrigel membrane): 5 μM and 10 μM, relative to DMSO vehicle
Description: (§3) The Invasion Assay provides an in vitro system to study cell invasion of malignant and normal cells. Specific applications include assessment of the metastatic potential of tumor cells. Invasion chambers coated with Corning® Matrigel® matrix provide cells with the conditions that allow assessment of their invasive capacity in vitro. Corning Matrigel matrix serves as a reconstituted basement membrane in vitro, occluding the pores of the membrane and blocking non-invasive cells from migrating through the membrane. In contrast, invasive cells (malignant and non-malignant) secrete proteases that enzymatically degrade the Corning Matrigel matrix and enable invasion through the membrane pores.
(§4) In order to assess whether DYRK1A plays a role in cell invasion, we performed an invasion assay using the two GBM cell lines U87MG and LN229. […] Inhibition of DYRK1A using FC2 and FC3 can also decrease the metastatic potential of GBM cells, thus making them good therapeutic candidates for EGFR-dependent GBM.

LN229 [4] = test: Invasion assay (Matrigel), LN229; assay type: cell-based
Description: as §3, §4

[5] = target: panel of 140 different kinases; test: Panel of 140 different kinases; assay type: biochemical
DYRK1A point mutants [6] = target: DYRK1A point mutants (Homo sapiens, UniProt Q13627, F238L); test: In-vitro radiolabeled kinase assays against DYRK1A point mutants; assay type: biochemical; settings: F238L
Description: (§5) Kinase domains contain a gatekeeper residue that partially or fully blocks a hydrophobic region deep in the ATP binding pocket. The gatekeeper residue contributes to the selectivity of kinases for small molecule inhibitors. Based on the DYRK1A crystal structure with FC3 and sequence alignment, the gatekeeper residue in DYRK1A is Phe238 which is replaced by a smaller […] in case of PIM1 and other PIM kinases. Similarly, Met240, two residues after the gatekeeper residue was very unique to DYRK1A. Another interesting residue was Ser241 which was conserved among DYRKs. Point mutants of the gatekeeper residue (F238L), Met240 (M240R), […] and a double mutant (F238LM240R) were created to evaluate if the point mutants show resistance towards FC2 and FC3.
(§6) In-vitro radiolabeled kinase assays were used to determine the IC50s of FC2 and FC3 against the DYRK1A point mutants. There was no change in the Km or Vmax of the point mutants of DYRK1A and their activity was similar to wild-type DYRK1A.

DYRK1A point mutants [7] = target: DYRK1A point mutants (Homo sapiens, UniProt Q13627, F238L/M240R); test: as above; assay type: biochemical; settings: F238LM240R
Description: as §5, §6

DYRK1A point mutants [8] = target: DYRK1A point mutants (Homo sapiens, UniProt Q13627, M240R); test: as above; assay type: biochemical; settings: M240R
Description: as §5, §6

DYRK1A point mutants [9] = target: DYRK1A point mutants (Homo sapiens, UniProt Q13627, S242A); test: as above; assay type: biochemical; settings: S242A
Description: as §5, §6

PIM1, sequence (P11309 whole entry): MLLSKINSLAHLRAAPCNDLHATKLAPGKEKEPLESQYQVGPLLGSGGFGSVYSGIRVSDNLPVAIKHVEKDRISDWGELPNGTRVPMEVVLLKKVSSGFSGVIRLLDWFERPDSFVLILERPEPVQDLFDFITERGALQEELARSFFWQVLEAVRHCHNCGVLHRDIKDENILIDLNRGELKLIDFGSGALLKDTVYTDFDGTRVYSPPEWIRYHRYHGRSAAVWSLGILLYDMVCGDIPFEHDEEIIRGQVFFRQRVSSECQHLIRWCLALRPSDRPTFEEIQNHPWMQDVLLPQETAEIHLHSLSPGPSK

Oc1ccc(-c2nc3ccc4nn[nH]c4c3s2)cc1O [FC-10, 4-(1H-thiazolo[5′,4′:3,4]benzo[1,2-d][1,2,3]triazol-7-yl)benzene-1,2-diol]
IC50 (DYRK1A): 110 nM

COc1ccc(O)c2nc(C(=O)c3ccc(O)c(O)c3)sc12 [FC-7A, (3,4-dihydroxyphenyl)(4-hydroxy-7-methoxybenzo[d]thiazol-2-yl)methanone]
IC50 (DYRK1A): 560 nM

O=C(c1nc2cc(O)c(O)cc2s1)c1cc(O)c(O)cc1O [FC-63]
IC50 (PIM1): 238 nM

O=[N+]([O-])c1ccc(O)cc1-c1nc2cc3c(cc2s1)OCO3 [FC-115]
PIM1 IC50 (nm) (PIM1): No Inhibition
IC50 (DYRK1A): 524 nM

COc1cc(O)c(C(=O)c2nc3cc(O)c(O)cc3s2)cc1O [FC-4, (2,5-Dihydroxy-4-methoxyphenyl)(5,6-dihydroxybenzo[d]thiazol-2-yl)methanone]
IC50 (PIM1): 174 nM
IC50 (DYRK1A): 87 nM

CCN1/C(=C/C(C)=O)Sc2ccc(O)cc21 [INDY, reference compound]
proliferation of U87MG cells, assessed by neurosphere diameter (U87MG cells [1]): did not inhibit proliferation

COc1ccc(-c2nc3cc4cn[nH]c4cc3s2)cc1OC [FC-205, 6-(3,4-dimethoxyphenyl)-1H-thiazolo[4,5-f]-indazole]
IC50 (DYRK1A): 206 nM

Oc1cc2nc(-c3ccc(O)c(O)c3O)sc2cc1O [FC-5]
IC50 (PIM1): 144 nM
IC50 (DYRK1A): 95 nM

S=C1Cc2ccc(-c3nc4cc5c(cc4s3)OCO5)cc2N1 [FC-208]
IC50 (DYRK1A): 560 nM

O=C(c1ccc(O)c(O)c1)c1nc2c(O)ccc(O)c2s1 [FC-7, (4,7-Dihydroxybenzo[d]thiazol-2-yl)(3,4-dihydroxyphenyl)methanone]
PIM1 IC50 (nm) (PIM1): Micromolar inhibition
IC50 (DYRK1A): 229 nM

Oc1ccc(-c2nc3cc4c(cc3s2)OCO4)cc1O [FC-2, 4-([1,3]Dioxolo[4′,5′:4,5]benzo[1,2-d]thiazol-6-yl)benzene-1,2-diol]
PIM1 IC50 (nm) (PIM1): Micromolar inhibition
proliferation of U87MG cells, assessed by neurosphere diameter (U87MG cells [1]): significantly inhibited proliferation
neurosphere proliferation (U87MG cells [1]): did not show a decrease
neurosphere proliferation (neurosphere numbers and size) (U87MG cells [1]): significant decrease in neurosphere proliferation
neurosphere proliferation (neurosphere numbers and size) (LN229 [2]): significant decrease in neurosphere proliferation
ability of the cells to invade the Matrigel chamber (U87MG cells [3]): impaired the ability of the cells to invade
invasion (U87MG cells [3]): did not show a decrease
cell invasion (cells crossing matrigel membrane) (U87MG cells [3]): significantly inhibited cell invasion; also recorded: reduces the invasive ability
ability of the cells to invade the Matrigel chamber (LN229 [4]): impaired the ability of the cells to invade
kinase specificity [5]: very specific to the DYRK family of kinases
IC50 against DYRK1A point mutant versus wild-type (DYRK1A point mutants [6]): significantly higher
IC50 against DYRK1A double mutant versus wild-type (DYRK1A point mutants [7]): even higher
IC50 against DYRK1A point mutant versus wild-type (DYRK1A point mutants [8]): significantly higher
IC50 (DYRK1A): 19 nM

Oc1ccc(-c2nc3ccc4[nH]ncc4c3s2)cc1O [FC-196, 4-(6H-thiazolo[5,4-e]indazol-2-yl)benzene-1,2-diol]
IC50 (DYRK1A): 500 nM

COc1ccc(C(=O)c2nc3cc(O)c(O)cc3s2)cc1F [FC-8, (5,6-Dihydroxybenzo[d]thiazol-2-yl)(3-fluoro-4-methoxyphenyl)methanone]
IC50 (PIM1): 317 nM
IC50 (DYRK1A): 238 nM

O=C(c1ccc(O)c(O)c1)c1nc2cc(O)c(O)cc2s1 [FC-3, (5,6-Dihydroxybenzo[d]thiazol-2-yl)(3,4-dihydroxyphenyl)methanone]
PIM1 IC50 (nm) (PIM1): Micromolar inhibition
proliferation of U87MG cells, assessed by neurosphere diameter (U87MG cells [1]): significantly inhibited proliferation
neurosphere proliferation (U87MG cells [1]): did not show a decrease
neurosphere proliferation (neurosphere numbers and size) (U87MG cells [1]): significant decrease in neurosphere proliferation
neurosphere proliferation (neurosphere numbers and size) (LN229 [2]): significant decrease in neurosphere proliferation
ability of the cells to invade the Matrigel chamber (U87MG cells [3]): impaired the ability of the cells to invade
invasion (U87MG cells [3]): did not show a decrease
cell invasion (cells crossing matrigel membrane) (U87MG cells [3]): significantly inhibited cell invasion; also recorded: reduces the invasive ability
ability of the cells to invade the Matrigel chamber (LN229 [4]): impaired the ability of the cells to invade
kinase specificity [5]: very specific to the DYRK family of kinases
IC50 against DYRK1A point mutant versus wild-type (DYRK1A point mutants [6]): significantly higher
IC50 against DYRK1A double mutant versus wild-type (DYRK1A point mutants [7]): even higher
IC50 against DYRK1A point mutant versus wild-type (DYRK1A point mutants [8]): significantly higher
IC50 against DYRK1A point mutant versus wild-type (DYRK1A point mutants [9]): significantly higher
IC50 (DYRK1A): 53 nM

Oc1ccc(-c2nc3cc4cn[nH]c4cc3s2)cc1O [FC-204, 4-(1H-thiazolo[4,5-f]-indazol-6-yl)benzene-1,2-diol]
IC50 (DYRK1A): 57 nM

COc1cc(O)c(C(=O)c2nc3cc(O)ccc3s2)cc1O [FC-6, (2,5-Dihydroxy-4-methoxyphenyl)(5-hydroxybenzo[d]thiazol-2-yl)methanone]
IC50 (PIM1): 552 nM
IC50 (DYRK1A): 180 nM

Oc1ccc(-c2nc3c(ccc4[nH]cnc43)s2)cc1O [FC-14, 4-(6H-imidazo[4′,5′:5,6]benzo[1,2-d]thiazol-2-yl)benzene-1,2-diol]
IC50 (DYRK1A): 400 nM
